These compounds were tested against human M4 receptor (Homo sapiens (Human), UniProt P08173) (assay: Radioligand (tritiated N-methylscopolamine) binding assay, M4). Conditions: Ki against the M4 receptor; membranes from CHO cells expressing human M4; tritiated N-methylscopolamine 1.5 nM; read-out: Ki.
Procedure, shortened: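 Membranes came from recombinant CHO cells expressing human muscarinic subtypes and were incubated with compound and [3H]NMS (1.5 nM) in HEPES/NaCl/MgCl2/EDTA buffer, pH 7.4, at 37° C for 90 min. Twelve-point dose-response (printed 10–[…]). Filter-bound radioactivity was counted and Ki values derived.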

human M4 receptor, sequence (P08173 whole entry): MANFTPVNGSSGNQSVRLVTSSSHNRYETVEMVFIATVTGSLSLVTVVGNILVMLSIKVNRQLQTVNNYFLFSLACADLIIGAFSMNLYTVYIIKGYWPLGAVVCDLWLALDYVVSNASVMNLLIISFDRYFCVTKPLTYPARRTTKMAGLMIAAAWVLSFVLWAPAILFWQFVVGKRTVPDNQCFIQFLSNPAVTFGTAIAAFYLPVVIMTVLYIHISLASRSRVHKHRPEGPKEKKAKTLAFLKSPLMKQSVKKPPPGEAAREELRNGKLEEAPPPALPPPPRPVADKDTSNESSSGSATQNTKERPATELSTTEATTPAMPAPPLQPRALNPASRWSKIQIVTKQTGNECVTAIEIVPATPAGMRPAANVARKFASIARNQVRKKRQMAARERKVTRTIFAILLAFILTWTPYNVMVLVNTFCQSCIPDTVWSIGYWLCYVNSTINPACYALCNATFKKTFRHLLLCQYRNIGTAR

| Compound | Ki [nM] |
| --- | --- |
| C[C@@H]1CN(c2cc(F)cc(C#N)c2)CCN1C(=O)NCC[C@H]1CCN(Cc2ccccc2)C1 [7-8, (2R)-N-{2-[(3S)-1-benzylpyrrolidin-3-yl]ethyl}-4-(3-cyano-5-fluorophenyl)-2-methylpiperazine-1-carboxamide] | 100 to 1000 |
| CCN1CCN(C2CCN(C(=O)NCCC3CCN(Cc4ccccc4)CC3)CC2)CC1 [8-37, N-[2-(1-benzylpiperidin-4-yl)ethyl]-4-(4-ethylpiperazin-1-yl)piperidine-1-carboxamide] | 100 to 1000 |
| O=C(NCC1CCN(Cc2ccccc2)CC1)C1CCN(c2ncc(C(F)(F)F)cc2Cl)CC1 [9-65, N-[(1-benzylpiperidin-4-yl)methyl]-1-[3-chloro-5-(trifluoromethyl)pyridin-2-yl]piperidine-4-carboxamide] | 100 to 1000 |
| O=C(OCCC1CCN(Cc2ccccc2)CC1)N1CCN(c2cc(F)c(F)c(F)c2)CC1 [12-12, 2-(1-benzylpiperidin-4-yl)ethyl 4-(3,4,5-trifluorophenyl)piperazine-1-carboxylate] | 10 to 100 |
| C[C@@H]1CN(c2cc(F)c(F)c(F)c2)CCN1C(=O)NCCC1CCN(Cc2ccc(F)c(F)c2F)CC1 [6-22, (2R)-2-methyl-4-(3,4,5-trifluorophenyl)-N-(2-{1-[(2,3,4-trifluorophenyl)methyl]piperidin-4-yl}ethyl)piperazine-1-carboxamide] | 100 to 1000 |
| N#Cc1cc(F)cc(N2CCN(C(=O)NCCC3CCN(Cc4ccccc4)CC3)CC2)c1 [8-18, N-[2-(1-benzylpiperidin-4-yl)ethyl]-4-(3-cyano-5-fluorophenyl)piperazine-1-carboxamide] | 10 to 100 |
| C[C@@H]1CN(c2cc(F)c(F)c(F)c2)CCN1C(=O)NCCN1CCN(Cc2ccccc2)CC1 [7-6, (2R)-N-[2-(4-benzylpiperazin-1-yl)ethyl]-2-methyl-4-(3,4,5-trifluorophenyl)piperazine-1-carboxamide] | 100 to 1000 |
| C[C@@H]1CN(c2ccnc(F)c2)CCN1C(=O)NCCC1CCN(Cc2ccccc2)CC1 [22-18] | 10 to 100 |
| O=C(NCCC1CCN(Cc2ccccc2)CC1)c1ccc(-c2ccc(O)cc2)cc1 [9-69, N-[2-(1-benzylpiperidin-4-yl)ethyl]-4-(4-hydroxyphenyl)benzamide] | 100 to 1000 |
| COC1(C(=O)NCCC2CCN(Cc3ccccc3)CC2)CCN(c2ccccc2OC(F)(F)F)CC1 [10-75, N-[2-(1-benzylpiperidin-4-yl)ethyl]-4-methoxy-1-[2-(trifluoromethoxy)phenyl]piperidine-4-carboxamide] | 100 to 1000 |
| COc1ncccc1-c1cc2ncc(C(=O)NCCC3CCN(Cc4ccccc4)CC3)c(C)n2n1 [18-14] | 10 to 100 |
| N-{2-[1-(2-hydroxy-1-phenylethyl)piperidin-4-yl]ethyl}-1-[4-(trifluoromethoxy)phenyl]piperidine-4-carboxamide [11-12] | 100 to 1000 |
| O=C(NCCC1CCN(Cc2ccccc2)CC1)N1CCC(n2nnc3ccccc32)CC1 [8-46, 4-(1H-1,2,3-benzotriazol-1-yl)-N-[2-(1-benzylpiperidin-4-yl)ethyl]piperidine-1-carboxamide] | 100 to 1000 |
| O=C(NCCC1CCN(Cc2ccccc2)CC1)C1CCN(c2ccc(F)cc2)CC1 [10-35, N-[2-(1-benzylpiperidin-4-yl)ethyl]-1-(4-fluorophenyl)piperidine-4-carboxamide] | 10 to 100 |
| O=C(NCC[C@@H]1CCN(Cc2ccccc2)C1)C1CCN(c2ccc(OC(F)(F)F)cc2)CC1 [9-66, N-{2-[(3R)-1-benzylpyrrolidin-3-yl]ethyl}-1-[4-(trifluoromethoxy)phenyl]piperidine-4-carboxamide] | 100 to 1000 |
| CC(C)NC(=O)c1cnc(N2CCN(C(=O)NCCC3CCN(Cc4ccccc4)CC3)[C@H](C)C2)nc1 [27-15] | 100 to 1000 |

| Compound | Ki [nM] |
| --- | --- |
| C[C@@H]1CN(c2ncccn2)CCN1C(=O)NCCC1CCN(Cc2ccccc2)CC1 [4-64, (2R)-N-[2-(1-benzylpiperidin-4-yl)ethyl]-2-methyl-4-(pyrimidin-2-yl)piperazine-1-carboxamide] | 100 to 1000 |
| O=C(NCCC1CCN(Cc2ccccc2)CC1)C1CCN(c2ccccc2OC(F)(F)F)CC1 [10-70, N-[2-(1-benzylpiperidin-4-yl)ethyl]-1-[2-(trifluoromethoxy)phenyl]piperidine-4-carboxamide] | 100 to 1000 |
| C[C@@H]1CN(c2ccc(C(F)(F)F)nc2)CCN1C(=O)NCCC1CCN(Cc2ccccc2)CC1 [4-34, (2R)-N-[2-(1-benzylpiperidin-4-yl)ethyl]-2-methyl-4-[6-(trifluoromethyl)pyridin-3-yl]piperazine-1-carboxamide] | 10 to 100 |
| COc1cc(OC(F)(F)F)cc(N2CCC(C(=O)NCCC3CCN(Cc4ccccc4)CC3)CC2)c1 [10-29, N-[2-(1-benzylpiperidin-4-yl)ethyl]-1-[3-methoxy-5-(trifluoromethoxy)phenyl]piperidine-4-carboxamide] | 10 to 100 |
| N-{2-[1-(2,2-dimethylpropyl)piperidin-4-yl]ethyl}-1-[4-(trifluoromethoxy)phenyl]piperidine-4-carboxamide [11-27] | 100 to 1000 |
| C[C@@H]1CN(c2ccc(OC(F)(F)F)c(C#N)c2)CCN1C(=O)NCCC1CCN(Cc2ccc(I)cc2)CC1 [3-7, (2R)-4-[3-cyano-4-(trifluoromethoxy)phenyl]-N-(2-{1-[(4-iodophenyl)methyl]piperidin-4-yl}ethyl)-2-methylpiperazine-1-carboxamide] | 10 to 100 |
| Cc1c(C(=O)NCCC2CCN(Cc3ccccc3)CC2)cnc2cc(-c3ccc(C#N)c(F)c3)nn12 [18-12] | 10 to 100 |
| N#Cc1cc(N2CCC(C(=O)NCCC3(CO)CCN(Cc4ccccc4)CC3)CC2)ccc1F [9-24, N-{2-[1-benzyl-4-(hydroxymethyl)piperidin-4-yl]ethyl}-1-(3-cyano-4-fluorophenyl)piperidine-4-carboxamide] | 10 to 100 |
| C[C@@H]1CN(c2ccc(C#N)cc2F)CCN1C(=O)NCCC1CCN(Cc2ccccc2)CC1 [4-43, (2R)-N-[2-(1-benzylpiperidin-4-yl)ethyl]-4-(4-cyano-2-fluorophenyl)-2-methylpiperazine-1-carboxamide] | 10 to 100 |
| Cc1nc(-c2ccc(C(F)(F)F)cc2)sc1C(=O)NCCC1CCN(Cc2ccccc2)CC1 [9-32, N-[2-(1-benzylpiperidin-4-yl)ethyl]-4-methyl-2-[4-(trifluoromethyl)phenyl]-1,3-thiazole-5-carboxamide] | 10 to 100 |
| C[C@@H]1CN(c2ncc(C(=O)NC3CCC3)cn2)C[C@H](C)N1C(=O)NCCC1CCN(Cc2ccccc2)CC1 [27-6] | 100 to 1000 |
| O=C(NCCC1CCN(Cc2ccccc2)CC1)C1CCN(c2nccc(C(F)(F)F)n2)CC1 [10-30, N-[2-(1-benzylpiperidin-4-yl)ethyl]-1-[4-(trifluoromethyl)pyrimidin-2-yl]piperidine-4-carboxamide] | 10 to 100 |
| O=C(NCCC1CCN(Cc2cccnc2F)CC1)c1ccc(Oc2ccccc2)cc1 [11-2, N-(2-{1-[(2-fluoropyridin-3-yl)methyl]piperidin-4-yl}ethyl)-4-phenoxybenzamide] | 10 to 100 |
| O=C(NCCC1CCN(Cc2ccc3[nH]ccc3c2)CC1)C1CCN(c2ccc(OC(F)(F)F)cc2)CC1 [11-22, N-{2-[1-(1H-indol-5-ylmethyl)piperidin-4-yl]ethyl}-1-[4-(trifluoromethoxy)phenyl]piperidine-4-carboxamide] | 100 to 1000 |
| Cc1c(C(=O)NCCC2CCN(Cc3ccccc3)CC2)cnc2cc(-c3cccnc3F)nn12 [18-18] | 100 to 1000 |
